Source: BindingDB's records for doi:10.1124/jpet.104.066688 (Acadia Pharmaceuticals, 2004)

Target: T1, 5-hydroxytryptamine receptor 2C (Homo sapiens, UniProt P28335)
T1 sequence (P28335 whole entry): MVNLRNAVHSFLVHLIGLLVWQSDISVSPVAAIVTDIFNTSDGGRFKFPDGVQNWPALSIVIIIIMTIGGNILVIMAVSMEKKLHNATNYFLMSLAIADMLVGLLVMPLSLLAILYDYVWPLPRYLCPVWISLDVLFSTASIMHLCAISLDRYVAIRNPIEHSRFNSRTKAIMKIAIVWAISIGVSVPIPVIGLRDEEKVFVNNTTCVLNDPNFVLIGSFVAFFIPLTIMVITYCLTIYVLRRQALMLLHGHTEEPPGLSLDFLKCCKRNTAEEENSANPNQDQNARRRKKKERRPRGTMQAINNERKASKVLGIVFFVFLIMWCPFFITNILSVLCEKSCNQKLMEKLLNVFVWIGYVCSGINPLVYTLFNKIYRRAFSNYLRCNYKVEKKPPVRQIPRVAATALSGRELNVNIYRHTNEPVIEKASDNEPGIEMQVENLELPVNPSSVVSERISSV

In the case of COc1ccc(CC(=O)N(Cc2ccc(C)cc2)C2CCN(C)CC2)cc1 [N-(4-Methylbenzyl)-N-(1-methyl-4-piperidinyl)-4-methoxybenzeneacetamide], the Ki is reported as 2.9 nM.
